Data: patent US20160090351A1, “INHIBITORS OF DEUBIQUITINATING PROTEASES” (BRANDEIS UNIVERSITY, priority 2013, published 2016)

What was measured:
[1] = tested on: USP9x and USP7; test: HA-Ub-VS activity profiling of lysates from treated HEK 293T cells, USPs; format: cell-based, human; conditions: 100 μM, 2 hours
Experimental: FIG. 32 depicts data showing that diphenyl carbonates inhibit DUBs in HEK 293T cells. A. Viability of HEK 293T cells assessed by the propidium iodide exclusion method: diphenyl carbonate (100 μM), bortezomib (V, 20 μM) and G5 (2 μM). N≧3, mean+/−s.d. B. HEK 293T cells were treated with the stated compounds (50 μM) for 2 h and then assayed for the accumulation of K48-linked Ub species. C. As in A, but K63-linked Ub was assayed. D. HEK 293T cells were treated with C14, C15, C17, C18 (100 μM) or DMSO for 2 hours, then harvested, lysed and treated with HA-Ub-VS. After 30 min, lysates were analyzed by SDS-PAGE and probed for HA, tubulin and actin. An intervening lane was removed for clarity. E. HEK 293T cells expressing Ub-G76V-GFP were treated with diphenyl carbonates (100 μM), bortezomib (20 μM) and G5 (2 μM). […] N>3, Mean+/−s.d. See also FIG. 39.
Lysate labeling assay on untransfected cells (1.5 mg/mL) was run with the stated concentration of inhibitor (or 1% DMSO control) for between 19-60 mins. After this time HA-Ub-VS (1.5-0.7 μM) was added and incubated for 19 mins. After this time reaction mixture (9 μL) was removed and quenched in 2× (final concentration) reducing loading buffer. […]
Lysates from HEK 293T cells treated with diphenylcarbonates were analyzed by HA-Ub-VS activity profiling to assess the selectivity of DUB inhibition in the context of a cell.

[2] = tested on: MCF7 cells; test: viability and cell cycle of MCF7 cells (Alamar Blue, FACS)
Experimental: (§2) MCF7 cells were dosed every 2 hours with the indicated concentration of C15. After 6 hours, cells were lysed by freeze thaw and then sonicated in 0.5% SDS. […] MCF7 cells were treated under the stated conditions then analyzed for cell cycle. […] G. Cells treated with C17 (25 μM), dosed every 24 hours. H. Cells treated with C17 (50 μM), dosed every 24 hours. […] These cells were left for 72 h (single dose) after which time the total number of viable cells was analyzed using Alamar Blue®. All data are n≧4 showing mean+/−s.e.m. K. MCF7 cells were plated with C17 for 24 hours after which time the total number of viable cells was measured by Alamar Blue®.
(§3) All cells were grown at 37° C. in a 5% CO2 humidified atmosphere in DMEM supplemented with 10% heat inactivated FBS, 1× glutamax, and 1× penicillin/streptomycin. […] Proliferation assays were conducted by plating cells at 5% confluence in 96 well plates together with compound or 0.1% DMSO. Cells were allowed to grow for 72 hours (a 24 h dosing regimen was used for carbonate compounds) and then Alamar Blue® was added and number of cells was measured by fluorescence on a microplate reader.

[3] = tested on: MCF7 cells
Experimental: as §2, §3

[4] = tested on: Mdm2, p53, p21/WAF1; test: Mdm2, p53 and p21/WAF1 levels in MCF7 cells; format: cell-based, human; conditions: for Mdm2 levels: C17 4 h, C15 6 hours dosed every 2 hours
Experimental: FIG. 35 depicts data showing that diphenylcarbonates reduce the levels of Mdm2 and cause the accumulation of P53 and P21 in MCF7 cells. A. MCF7 cells were treated with C17 for 4 h and Mdm2 levels were measured. B. As in A, P53 measured. C. As in A, P21 measured. D. MCF7 and B16/F10 cells were treated with C17 every 24 hours. After 72 hours, the number of viable cells was measured by Alamar Blue®. See also FIG. 41 and FIG. 42.
C. Effect of C15 on PARP cleavage and P53 levels. […] E. Effects of C15 on Mdm2 and P21 levels. […] F. DMSO treated cells. […] C17 was dosed every 24 h. After this time, cells were analyzed by flow cytometry.
(§1) Transfected cells were harvested 1.5 days post transfection. […] Typically clarified lysate was analyzed.
The ability of diphenyl carbonates to inhibit USP7 function in cells was also assessed. The ubiquitin-ligase Mdm2 is a substrate for USP7. Mdm2 is responsible for the ubiquitination and subsequent degradation of p53. Mdm2 is over-expressed in many cancer cells, resulting in the depletion of p53. Mdm2 is itself degraded via an ubiquitin-dependent process. USP7 removes ubiquitin from Mdm2, protecting it from degradation. Like Mdm2, USP7 is over-expressed in many cancers. Inhibition of USP7 promotes the proteasome-mediated degradation of Mdm2, which causes an increase in p53 levels, as well as those of the downstream signaling protein p21/WAF1, and ultimately induces apoptosis.

[5] = tested on: SMAD4; test: SMAD4 monoubiquitination in K562 cells by western blot; format: cell-based, human
Experimental: FIG. 34 depicts data showing that diphenylcarbonates cause the accumulation of HMW-Ub and reduce the levels of Bcr-Abl in K562 cells. A. K562 cells were treated with diphenyl carbonates (50 μM) for 2 h and then assayed for the accumulation of K48-linked Ub. B. As in A, but Bcr-Abl was measured by immunoblotting with anti-Abl antibodies. C. K562 cells were treated with C17 (50 μM) in the presence and absence of bortezomib (6 μM) for 4 hours and Bcr-Abl was measured by immunblotting with anti-Abl antibodies. D. Quantitation of blot in C. Significance: DMSO relative to C17 and bortezomib p=0.002; DMSO relative to C17, p=0.03. E. K562 cells were treated with C15 for 4 hours then analyzed for SMAD4 monoubiquitination by western blot. F. Quantitation of blots in A. (N=3). See also FIG. 40.
as §1

Compound	HA-Ub-VS labeling of USP9x and USP7 after treatment of cells [1]	viability after single dose, 24 h ([2]; Alamar Blue)	G1 phase cells ([2]; FACS, dosed every 24 hours)	cytotoxicity after single dose, 72 h [3]	decrease of cell viability [3] [%]	p21/WAF1 levels [4]	p53 levels [4]	Mdm2 levels [4]	SMAD4 monoubiquitination [5]
NCc1ccc(OC(=O)Oc2cccc3ccccc23)cc1 [Compound C18]	most potent compounds								
NCc1ccc(OC(=O)Oc2ccc3ccccc3c2)cc1 [Compound C17]	most potent compounds	small, but significant, decrease in viability	significant increase in G1 phase cells	no cytotoxicity was observed	50	robust increase in p21/WAF1 levels	concomitant increase in p53	Mdm2 levels decreased	
NCc1ccc(OC(=O)Oc2ccc(Br)cc2)cc1 [Compound C15, 4-(aminomethyl)phenyl(4-bromophenyl)carbonate]						decreased p21/WAF1	increased P53 levels	decreased Mdm2	increased SMAD4 monoubiquitination
